Test results taken from the Kinase Knowledgebase extract (Sharma et al. 2016).

The compounds below were run against MAPK14 (UniProt Q16539) (assay: Inhibition of MAPK14 Kinase Activity).
MAPK14, sequence (Q16539 whole entry, looked up): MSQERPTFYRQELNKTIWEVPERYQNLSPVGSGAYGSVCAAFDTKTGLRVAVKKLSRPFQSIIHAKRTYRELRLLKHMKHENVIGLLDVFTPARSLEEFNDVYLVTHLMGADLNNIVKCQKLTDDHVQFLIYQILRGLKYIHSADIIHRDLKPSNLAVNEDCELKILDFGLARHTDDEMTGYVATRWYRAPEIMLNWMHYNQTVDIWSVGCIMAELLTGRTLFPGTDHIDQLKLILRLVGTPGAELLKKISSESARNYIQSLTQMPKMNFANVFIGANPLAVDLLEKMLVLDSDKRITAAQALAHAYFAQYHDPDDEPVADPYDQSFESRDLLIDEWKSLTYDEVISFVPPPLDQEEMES

SMILES | IC50 [µM]
Cc1ccc(C(=O)Nc2nncs2)cc1-c1ccc2c(C3CCNCC3)noc2c1 | < 10
CNC(=O)c1ccc(CNC(=O)Cn2ncc3cc(-c4cc(C(=O)NC5CC5)ccc4C)ccc32)cc1 | < 10
Cc1ccc(CNC(=O)Cn2ncc3cc(-c4cc(C(=O)NC5CC5)ccc4C)ccc32)cc1 | < 10
CCCNC(=O)Cn1ncc2cc(-c3cc(C(=O)NC4CC4)ccc3C)ccc21 | < 10
Cc1ccc(S(=O)(=O)n2ncc3cc(-c4cc(C(=O)NC5CC5)ccc4C)ccc32)cc1 | < 10
CCCNC(=O)Cn1ncc2cc(-c3cc(C(=O)NC4CC4)cc(F)c3C)ccc21 | < 10
Cc1ccc(C(=O)NC2CC2)cc1-c1ccc2c(cnn2S(=O)(=O)c2ccc3c(c2)CCO3)c1 | < 10
Cc1ccc(C(=O)Nc2ccnc(N3CCCC3)c2)cc1-c1ccc2c(C)noc2c1 | < 10
Cc1ccc(C(=O)NC2CC2)cc1-c1ccc2c(cnn2S(=O)(=O)c2ccc(C(F)(F)F)cc2)c1 | < 10
Cc1ccc(C(=O)NC2CC2)cc1-c1ccc2c(cnn2CC(=O)NC(C)C)c1 | < 10
Cc1ccc(C(=O)NC2CC2)cc1-c1ccc2c(CN3CCOCC3)noc2c1 | < 10
Cc1ccc(C(=O)NC2CC2)cc1-c1ccc2c(CC(=O)NCCCO)noc2c1 | < 10
Cc1c(F)cc(C(=O)NC2CC2)cc1-c1ccc2c(C(=O)NCC3CC3)noc2c1 | < 10
Cc1ccc(S(=O)(=O)n2ccc3cc(-c4cc(C(=O)NC5CC5)cc(F)c4C)ccc32)cc1 | < 10
CCCCCCCCS(=O)(=O)n1ncc2cc(-c3cc(C(=O)NC4CC4)cc(F)c3C)ccc21 | < 10
COc1cccc(NC(=O)c2ccc(C)c(-c3ccc4c(C5CCNCC5)noc4c3)c2)c1 | < 10

SMILES | IC50 [µM]
CCCc1ccc(S(=O)(=O)n2ncc3cc(-c4cc(C(=O)NC5CC5)cc(F)c4C)ccc32)cc1 | < 10
Cc1c(F)cc(C(=O)NC2CC2)cc1-c1ccc2[nH]ncc2c1 | < 10
Cc1c(F)cc(C(=O)NC2CC2)cc1-c1ccc2c(cnn2C(=O)OC(C)(C)C)c1 | < 10
CCCCc1ccc(S(=O)(=O)n2ncc3cc(-c4cc(C(=O)NC5CC5)cc(F)c4C)ccc32)cc1 | < 10
Cc1ccc(C(=O)NC2CC2)cc1-c1ccc2c(cnn2S(=O)(=O)c2ccc(F)c(F)c2)c1 | < 10
Cc1ccc(C(=O)NC2CC2)cc1-c1ccc2c(cnn2S(=O)(=O)c2ccccc2C#N)c1 | < 10
Cc1ccc(C(=O)NC2CC2)cc1-c1ccc2c(cnn2CC(=O)NCC2CC2)c1 | < 10
Cc1c(F)cc(C(=O)NC2CC2)cc1-c1ccc2c(cnn2S(=O)(=O)c2cn(C)c(C)n2)c1 | < 10
Cc1ccc(C(=O)NC2CC2)cc1-c1ccc2nc(NC(=O)C3CC3)sc2c1 | < 10
Cc1c(F)cc(C(=O)NC2CC2)cc1-c1ccc2c(C(=O)N(C)C)noc2c1 | < 10
Cc1ccc(C(=O)NC2CC2)cc1-c1ccc2c(CC(=O)NC3CC3)noc2c1 | < 10
Cc1ccc(C(=O)NC2CC2)cc1-c1ccc2c(N3CCOCC3)noc2c1 | < 10
Cc1ccc(C(=O)NC2CC2)cc1-c1ccc2c(cnn2S(=O)(=O)c2c(C)noc2C)c1 | < 10
COC(=O)Cn1ncc2cc(-c3cc(C(=O)NC4CC4)cc(F)c3C)ccc21 | < 10
Cc1cccc(S(=O)(=O)n2ncc3cc(-c4cc(C(=O)NC5CC5)cc(F)c4C)ccc32)c1 | < 10
Cc1c(F)cc(C(=O)NC2CC2)cc1-c1ccc2c(cnn2S(=O)(=O)c2ccccc2)c1 | < 10

Further lines, results first:

IC50 [µM] | SMILES
< 10 | COC(=O)c1ccc(S(=O)(=O)n2ncc3cc(-c4cc(C(=O)NC5CC5)ccc4C)ccc32)o1
< 10 | Cc1ccccc1S(=O)(=O)n1ncc2cc(-c3cc(C(=O)NC4CC4)cc(F)c3C)ccc21
< 10 | Cc1c(F)cc(C(=O)NC2CC2)cc1-c1ccc2c(cnn2CC(=O)N2CCOCC2)c1
< 10 | Cc1c(F)cc(C(=O)NC2CC2)cc1-c1ccc2c(cnn2CC(=O)NCC(C)(C)C)c1
< 10 | Cc1ccc(C(=O)NC2CC2)cc1-c1ccc2c(cnn2S(=O)(=O)C2CC2)c1
< 10 | Cc1ccc(C(=O)NC2CC2)cc1-c1ccc2c(cnn2S(=O)(=O)c2ccc(F)cc2)c1
< 10 | Cc1ccc(C(=O)NC2CC2)cc1-c1ccc2c(cnn2S(=O)(=O)c2cccc(C#N)c2)c1
< 10 | Cc1ccc(C(=O)NC2CC2)cc1-c1ccc2c(cnn2S(=O)(=O)c2cccs2)c1
< 10 | CCCS(=O)(=O)n1ncc2cc(-c3cc(C(=O)NC4CC4)cc(F)c3C)ccc21
< 10 | Cc1c(F)cc(C(=O)NC2CC2)cc1-c1ccc2c(cnn2S(=O)(=O)C2CC2)c1
< 10 | COc1ccc(S(=O)(=O)n2ncc3cc(-c4cc(C(=O)NC5CC5)ccc4C)ccc32)cc1OC
< 10 | CC(=O)c1ccc(S(=O)(=O)n2ncc3cc(-c4cc(C(=O)NC5CC5)ccc4C)ccc32)cc1
< 10 | Cc1ccc(C(=O)NC2CC2)cc1-c1ccc2c(CN3CCN(C)CC3)noc2c1
< 10 | Cc1c(F)cc(C(=O)NC2CC2)cc1-c1ccc2c(cnn2S(=O)(=O)c2ccccc2Cl)c1
< 10 | Cc1c(F)cc(C(=O)NC2CC2)cc1-c1ccc2c(C(=O)NC3CC3)noc2c1
< 10 | Cc1ccc(C(=O)NC2CC2)cc1-c1ccc2c(CC(=O)N3CCCC3)noc2c1
< 10 | Cc1c(F)cc(C(=O)NC2CC2)cc1-c1ccc2c(c1)c(C)nn2S(=O)(=O)c1cccs1
< 10 | CCS(=O)(=O)n1ncc2cc(-c3cc(C(=O)NC4CC4)ccc3C)ccc21
< 10 | Cc1ccc(C(=O)NC2CC2)cc1-c1ccc2c(cnn2CC(=O)N2CCOCC2)c1
< 10 | Cc1ccc(C(=O)NC2CC2)cc1-c1ccc2c(cnn2CC2CC2)c1

IC50 [µM] | SMILES
< 10 | Cc1c(F)cc(C(=O)NC2CC2)cc1-c1ccc2c(ccn2S(=O)(=O)c2ccccc2)c1
< 10 | Cc1c(F)cc(C(=O)NC2CC2)cc1-c1ccc2c(cnn2S(=O)(=O)c2ccc(C#N)cc2)c1
< 10 | Cc1ccc(C(=O)NC2CC2)cc1-c1ccc2c(C3CCNCC3)noc2c1
< 10 | Cc1ccc(NC(=O)c2ccnc(N3CCCC3)c2)cc1-c1ccc2onc(C)c2c1
< 10 | Cc1ccc(NC(=O)c2ccoc2)cc1-c1ccc2c(C3CCNCC3)noc2c1
< 10 | Cc1c(F)cc(C(=O)NC2CC2)cc1-c1ccc2c(cnn2S(=O)(=O)c2ccc(Cl)s2)c1
< 10 | Cc1ccc(C(=O)NCC2CC2)cc1-c1ccc2c(C3CCNCC3)noc2c1
< 10 | Cc1c(F)cc(C(=O)NC2CC2)cc1-c1ccc2c(cnn2S(=O)(=O)c2cc(F)ccc2F)c1
< 10 | COC(=O)Cc1noc2cc(-c3cc(C(=O)NC4CC4)ccc3C)ccc12
< 10 | Cc1ccc(C(=O)NC2CC2)cc1-c1ccc2c(CC(=O)Nc3nccs3)noc2c1
< 10 | Cc1ccc(C(=O)NC2CC2)cc1-c1ccc2c(CN3CCCCC3)noc2c1
< 10 | Cc1ccc(C(=O)NC2CC2)cc1-c1ccc2c(cnn2CC(=O)NCC(C)(C)C)c1
< 10 | Cc1c(F)cc(C(=O)NC2CC2)cc1-c1ccc2c(cnn2CC(=O)NCC2CC2)c1
< 10 | Cc1ccc(NC(=O)c2ccsc2)cc1-c1ccc2c(C3CCNCC3)noc2c1
< 10 | Cc1ccc(C(=O)NC2CC2)cc1-c1ccc2c(cnn2S(=O)(=O)c2ccccc2F)c1
< 10 | COc1ccc(S(=O)(=O)n2ncc3cc(-c4cc(C(=O)NC5CC5)cc(F)c4C)ccc32)cc1
< 10 | COC(=O)c1ccc(CS(=O)(=O)n2ncc3cc(-c4cc(C(=O)NC5CC5)ccc4C)ccc32)cc1
< 10 | Cc1ccc(C(=O)NC2CC2)cc1-c1ccc2c(CC(=O)NCC3CC3)noc2c1
< 10 | Cc1ccc(C(=O)NC2CC2)cc1-c1ccc2[nH]ncc2c1
